Tests used:
[1] = xn = mol fraction of the nth substance listed; details: 101 kPa, Liquid; for viscosity: Capillary tube (Ostwald / Ubbelohde) method
[2] = refractive index (Na D-line) (dimensionless); xn = mol fraction of the nth substance listed; details: 101 kPa, Liquid, Standard Abbe refractometry
[3] = molar heat capacity at constant pressure; xn = mol fraction of the nth substance listed; details: 101 kPa, Liquid, Small sample (50 mg) DSC

C[S+](C)[O-] [dimethyl sulfoxide] + CCCO
Details	mass density, [1] [kg/m3]	molar heat capacity at constant pressure, [3] [J/K/mol]	refractive index, [2]	viscosity, [1] [mPa·s]
288.15 K, x1 = 0.0514	–	138.1	–	–
288.15 K, x1 = 0.0533	822.73	–	1.3942	2.251
288.15 K, x1 = 0.0938	834.33	–	1.3979	2.1
288.15 K, x1 = 0.1127	–	137.3	–	–
288.15 K, x1 = 0.1708	856.51	–	1.405	1.937
288.15 K, x1 = 0.2114	–	136.2	–	–
288.15 K, x1 = 0.2592	882.15	–	1.4132	1.835
288.15 K, x1 = 0.3163	–	135.5	–	–
288.15 K, x1 = 0.346	907.54	–	1.4212	1.81
288.15 K, x1 = 0.418	–	135.3	–	–
288.15 K, x1 = 0.4294	932.12	–	1.429	1.819
288.15 K, x1 = 0.5029	–	135.7	–	–
288.15 K, x1 = 0.5115	956.49	–	1.4367	1.864
288.15 K, x1 = 0.5981	982.38	–	1.4449	1.927
288.15 K, x1 = 0.6216	–	136.7	–	–
288.15 K, x1 = 0.6853	1008.66	–	1.4532	1.999
288.15 K, x1 = 0.7068	–	138.1	–	–
288.15 K, x1 = 0.7596	1031.23	–	1.4603	2.086
288.15 K, x1 = 0.7975	–	140	–	–
288.15 K, x1 = 0.8438	1057.01	–	1.4685	2.206
288.15 K, x1 = 0.8537	–	141.7	–	–
288.15 K, x1 = 0.8994	–	143.1	–	–
288.15 K, x1 = 0.9368	1085.71	–	1.4774	2.348
288.15 K, x1 = 0.9429	–	144.6	–	–
298.15 K, x1 = 0.0514	–	143.6	–	–
298.15 K, x1 = 0.0554	815.18	–	1.3889	1.799
298.15 K, x1 = 0.1127	–	142.3	–	–
298.15 K, x1 = 0.1366	838.3	–	1.3966	1.635
298.15 K, x1 = 0.2114	–	140.3	–	–
298.15 K, x1 = 0.22	862.21	–	1.4045	1.522
298.15 K, x1 = 0.2987	884.95	–	1.4119	1.486
298.15 K, x1 = 0.3163	–	139.1	–	–
298.15 K, x1 = 0.418	–	138.6	–	–
298.15 K, x1 = 0.4289	922.94	–	1.4239	1.487
298.15 K, x1 = 0.5022	944.55	–	1.4307	1.517
298.15 K, x1 = 0.5029	–	138.6	–	–
298.15 K, x1 = 0.5992	973.37	–	1.4398	1.575
298.15 K, x1 = 0.6216	–	139.7	–	–
298.15 K, x1 = 0.677	996.69	–	1.4472	1.633
298.15 K, x1 = 0.7068	–	141.1	–	–
298.15 K, x1 = 0.7656	1023.43	–	1.4558	1.71
298.15 K, x1 = 0.7975	–	143.5	–	–
298.15 K, x1 = 0.8358	1044.81	–	1.4627	1.786
298.15 K, x1 = 0.8537	–	145.4	–	–
298.15 K, x1 = 0.8994	–	147.4	–	–
298.15 K, x1 = 0.9181	1070.04	–	1.4705	1.881
298.15 K, x1 = 0.9429	–	149.4	–	–
298.15 K, x1 = 0.9646	1084.38	–	1.4747	1.942
308.15 K, x1 = 0.0514	–	149.7	–	–
308.15 K, x1 = 0.0537	806.44	–	1.3843	1.439
308.15 K, x1 = 0.1127	–	147.9	–	–
308.15 K, x1 = 0.1336	828.96	–	1.3916	1.319
308.15 K, x1 = 0.2114	–	145.2	–	–
308.15 K, x1 = 0.2147	852.03	–	1.3991	1.264
308.15 K, x1 = 0.2987	876.11	–	1.407	1.237
308.15 K, x1 = 0.3163	–	143	–	–
308.15 K, x1 = 0.3876	901.81	–	1.4152	1.243
308.15 K, x1 = 0.418	–	141.4	–	–
308.15 K, x1 = 0.4707	926.08	–	1.4229	1.265
308.15 K, x1 = 0.5029	–	140.9	–	–
308.15 K, x1 = 0.5552	950.93	–	1.4308	1.296
308.15 K, x1 = 0.6216	–	141.2	–	–
308.15 K, x1 = 0.6418	976.65	–	1.4389	1.343
308.15 K, x1 = 0.7068	–	142.4	–	–
308.15 K, x1 = 0.7191	999.78	–	1.4462	1.401
308.15 K, x1 = 0.7975	–	144.7	–	–
308.15 K, x1 = 0.7998	1024.11	–	1.454	1.474
308.15 K, x1 = 0.8537	–	146.8	–	–
308.15 K, x1 = 0.877	1047.58	–	1.4614	1.545
308.15 K, x1 = 0.8994	–	148.7	–	–
308.15 K, x1 = 0.9429	–	151	–	–
308.15 K, x1 = 0.965	1074.53	–	1.4698	1.621
